Results reported in patent publication US7517873B2, “Substituted pyrimidodiazepines” (Hoffman-La Roche Inc., priority 2007, dated 2009).

Target: T1, GST-PLK1 (Homo sapiens, UniProt P53350)
T1 construct: Full-length, active GST-PLK1 is purified from Sf9 insect cells; made in house; host or cells: Sf9 insect cells
Test: Biochemical Characterization Assay: GST-PLK1 kinase HTRF assay with GST-p53 substrate
Details: full-length GST-PLK1, GST-p53 and ATP, 37° C. for 35 minutes, HTRF signal
Protocol: Biochemical Characterization Assay
Full-length, active GST-PLK1 is purified from Sf9 insect cells, and full-length GST-p53 is purified from E. coli. Anti-phospho p53 antibody is from Cell Signaling Technology. Europium-conjugated anti-rabbit antibody is from PerkinElmer Life and Analytical Sciences. APC-conjugated anti-GST antibody is from Prozyme.
To assay compounds of the invention, two microliters of test compound (0.6 nM-4 mM) in DMSO or plain DMSO for control wells, 38 microliters of 20 mM HEPES pH 7, 50 mM NaCl, 10 mM MgCl2, 0.5 mM TCEP, 0.1 mM sodium orthovanadate, 0.1 mg/mL BSA, and 0.05% Triton X-100 (Kinase Assay Buffer) are added. […] Six microliters of GST-PLK1 (3 ug/mL) in Kinase Assay Buffer are then added and the solution incubated at 37° C. for 35 minutes. Six microliters of solution containing 43 mM EDTA to stop the reaction and a 1:600 dilution of anti-phospho-p53 antibody in 20 mM HEPES pH 7, 50 mM NaCl, and 0.5 mg/mL BSA (Antibody Binding Buffer) are added and the solution incubated at 37° C. for 30 minutes. […] The HTRF signal is read on an Envision reader from PerkinElmer Life and Analytical Sciences.

T1 sequence (P53350 whole entry): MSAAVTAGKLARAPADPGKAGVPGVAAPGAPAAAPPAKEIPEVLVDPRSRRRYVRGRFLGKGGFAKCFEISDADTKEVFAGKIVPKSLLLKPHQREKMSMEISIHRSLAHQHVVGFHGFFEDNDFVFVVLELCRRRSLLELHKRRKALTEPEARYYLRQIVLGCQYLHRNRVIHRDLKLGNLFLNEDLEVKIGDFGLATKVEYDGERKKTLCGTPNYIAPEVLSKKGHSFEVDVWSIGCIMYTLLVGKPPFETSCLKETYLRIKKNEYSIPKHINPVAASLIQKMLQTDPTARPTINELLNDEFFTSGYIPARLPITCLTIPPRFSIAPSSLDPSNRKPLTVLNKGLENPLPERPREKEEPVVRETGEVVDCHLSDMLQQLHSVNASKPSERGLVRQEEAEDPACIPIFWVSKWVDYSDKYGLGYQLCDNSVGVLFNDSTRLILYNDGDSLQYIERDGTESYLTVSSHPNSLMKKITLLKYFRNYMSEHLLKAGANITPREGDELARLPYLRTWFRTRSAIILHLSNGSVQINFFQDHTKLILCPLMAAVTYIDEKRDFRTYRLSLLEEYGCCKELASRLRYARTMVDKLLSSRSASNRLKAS

IC50 | Structure (SMILES)
500 to 5000 nM | COc1cc(C(=O)NC2CCN(C)CC2)ccc1Nc1ncc2c(n1)N(c1ccccc1)CC(C)C(=O)N2C (racemic) [I-51, (rac)-4-(5,7-Dimethyl-6-oxo-9-phenyl-6,7,8,9-tetrahydro-5H-pyrimido[4,5-b][1,4]diazepin-2-ylamino)-3-methoxy-N-(1-methyl-piperidin-4-yl)-benzamide]
< 500 nM | COc1cc(C(=O)NC2CCN(C)CC2)ccc1Nc1ncc2c(n1)N(C1CCC1)CC(C)C(=O)N2C (racemic) [I-52, (rac)-4-(9-Cyclobutyl-5,7-dimethyl-6-oxo-6,7,8,9-tetrahydro-5H-pyrimido[4,5-b][1,4]diazepin-2-ylamino)-3-methoxy-N-(1-methyl-piperidin-4-yl)-benzamide]
< 500 nM | COc1cc(C(=O)NC2CCN(C)CC2)ccc1Nc1ncc2c(n1)N(CC1CCCC1)CC(C)C(=O)N2C (racemic) [I-55, (rac)-4-(9-Cyclopentylmethyl-5,7-dimethyl-6-oxo-6,7,8,9-tetrahydro-5H-pyrimido[4,5-b][1,4]diazepin-2-ylamino)-3-methoxy-N-(1-methyl-piperidin-4-yl)-benzamide]
< 500 nM | COc1cc(C(=O)NC2CCN(C)CC2)ccc1Nc1ncc2c(n1)N(C1CCCC1C)CCC(=O)N2C (racemic) [I-57, (rac)-3-Methoxy-4-[5-methyl-9-(2-methyl-cyclopentyl)-6-oxo-6,7,8,9-tetrahydro-5H-pyrimido[4,5-b][1,4]diazepin-2-ylamino]-N-(1-methyl-piperidin-4-yl)-benzamide]
< 500 nM | COc1cc(C(=O)NC2CCN(C)CC2)ccc1Nc1ncc2c(n1)N(C1CCC(C)C1)CCC(=O)N2C (racemic) [I-58, (rac)-3-Methoxy-4-[5-methyl-9-(3-methyl-cyclopentyl)-6-oxo-6,7,8,9-tetrahydro-5H-pyrimido[4,5-b][1,4]diazepin-2-ylamino]-N-(1-methyl-piperidin-4-yl)-benzamide]
< 500 nM | COc1cc(C(=O)NC2CCN(C)CC2)ccc1Nc1ncc2c(n1)N(C1CCCC1(C)C)CCC(=O)N2C (racemic) [I-59, (rac)-4-[9-(2,2-Dimethyl-cyclopentyl)-5-methyl-6-oxo-6,7,8,9-tetrahydro-5H-pyrimido[4,5-b][1,4]diazepin-2-ylamino]-3-methoxy-N-(1-methyl-piperidin-4-yl)-benzamide]
< 500 nM | C=CCN1CC(C)C(=O)N(C)c2cnc(Nc3ccc(C(=O)NC4CCN(C)CC4)cc3OC)nc21 (racemic) [I-65, (rac)-4-(9-Allyl-5,7-dimethyl-6-oxo-6,7,8,9-tetrahydro-5H-pyrimido[4,5-b][1,4]diazepin-2-ylamino)-3-methoxy-N-(1-methyl-piperidin-4-yl)-benzamide]
> 5000 nM | COc1cc(C(=O)NC2CCN(C)CC2)ccc1N(C)c1ncc2c(n1)N(C1CCCCC1)CC(C)C(=O)N2C (racemic) [I-66, (rac)-4-[(9-Cyclohexyl-5,7-dimethyl-6-oxo-6,7,8,9-tetrahydro-5H-pyrimido[4,5-b][1,4]diazepin-2-yl)-methyl-amino]-3-methoxy-N-(1-methyl-piperidin-4-yl)-benzamide]
> 5000 nM | COc1cc(C(=O)NC2CCN(C)CC2)ccc1Nc1ncc2c(n1)N1CCCC(C1)C(=O)N2C (racemic) [I-67, (rac)-3-Methoxy-4-(8-methyl-9-oxo-1,3,5,8-tetraaza-tricyclo[8.3.1.0*2,7*]tetradeca-2,4,6-trien-4-ylamino)-N-(1-methyl-piperidin-4-yl)-benzamide]
< 500 nM | COc1cc(C(=O)NC2CCN(C)CC2)ccc1Nc1ncc2c(n1)N(C1CCCC1)C1CCCC1C(=O)N2C (racemic) [I-68, (rac)-4-(4-Cyclopentyl-9-methyl-10-oxo-1,2,3,3a,4,9,10,10a-octahydro-4,5,7,9-tetraaza-benzo[f]azulen-6-ylamino)-3-methoxy-N-(1-methyl-piperidin-4-yl)-benzamide]
500 to 5000 nM | CC1CN(C2CCCC2)c2nc(Nc3cccc(C(=O)NC4CCN(C)CC4)c3)ncc2N(C)C1=O (racemic) [I-69, (rac)-3-(9-Cyclopentyl-5,7-dimethyl-6-oxo-6,7,8,9-tetrahydro-5H-pyrimido[4,5-b][1,4]diazepin-2-ylamino)-N-(1-methyl-piperidin-4-yl)-benzamide]
500 to 5000 nM | CC1CN(C2CCCC2)c2nc(Nc3cccc(C(=O)NCCCN(C)C)c3)ncc2N(C)C1=O (racemic) [I-70, (rac)-3-(9-Cyclopentyl-5,7-dimethyl-6-oxo-6,7,8,9-tetrahydro-5H-pyrimido[4,5-b][1,4]diazepin-2-ylamino)-N-(3-dimethylamino-propyl)-benzamide]
500 to 5000 nM | CC1CN(C2CCCC2)c2nc(Nc3cccc(C(=O)NC4CCOCC4)c3)ncc2N(C)C1=O (racemic) [I-71, (rac)-3-(9-Cyclopentyl-5,7-dimethyl-6-oxo-6,7,8,9-tetrahydro-5H-pyrimido[4,5-b][1,4]diazepin-2-ylamino)-N-(tetrahydro-pyran-4-yl)-benzamide]
< 500 nM | CC1CN(C2CCCC2)c2nc(Nc3cccc(C(=O)Nc4cccnc4)c3)ncc2N(C)C1=O (racemic) [I-72, (rac)-3-(9-Cyclopentyl-5,7-dimethyl-6-oxo-6,7,8,9-tetrahydro-5H-pyrimido[4,5-b][1,4]diazepin-2-ylamino)-N-pyridin-3-yl-benzamide]
< 500 nM | COc1ccc(C(=O)NCCCN(C)C)cc1Nc1ncc2c(n1)N(C1CCCC1)CC(C)C(=O)N2C (racemic) [I-73, (rac)-3-(9-Cyclopentyl-5,7-dimethyl-6-oxo-6,7,8,9-tetrahydro-5H-pyrimido[4,5-b][1,4]diazepin-2-ylamino)-N-(3-dimethylamino-propyl)-4-methoxy-benzamide]
< 500 nM | COc1ccc(C(=O)NC2CCOCC2)cc1Nc1ncc2c(n1)N(C1CCCC1)CC(C)C(=O)N2C (racemic) [I-74, (rac)-3-(9-Cyclopentyl-5,7-dimethyl-6-oxo-6,7,8,9-tetrahydro-5H-pyrimido[4,5-b][1,4]diazepin-2-ylamino)-4-methoxy-N-(tetrahydro-pyran-4-yl)-benzamide]
> 5000 nM | CC1CN(C2CCCC2)c2nc(Nc3ccc(OCc4ccccc4)cc3)ncc2N(C)C1=O (racemic) [I-75, (rac)-2-(4-Benzyloxy-phenylamino)-9-cyclopentyl-5,7-dimethyl-5,7,8,9-tetrahydro-pyrimido[4,5-b][1,4]diazepin-6-one]
> 5000 nM | CC1CN(C2CCCC2)c2nc(Nc3ccc4oc(-c5ccncc5)nc4c3)ncc2N(C)C1=O (racemic) [I-76, (rac)-9-Cyclopentyl-5,7-dimethyl-2-(2-pyridin-4-yl-benzooxazol-5-ylamino)-5,7,8,9-tetrahydro-pyrimido[4,5-b][1,4]diazepin-6-one]
> 5000 nM | CC1CN(C2CCCC2)c2nc(Nc3ccc4oc(-c5cccnc5)nc4c3)ncc2N(C)C1=O (racemic) [I-77, (rac)-9-Cyclopentyl-5,7-dimethyl-2-(2-pyridin-3-yl-benzooxazol-5-ylamino)-5,7,8,9-tetrahydro-pyrimido[4,5-b][1,4]diazepin-6-one]
500 to 5000 nM | COc1ccc(NC(=O)c2ccccc2)cc1Nc1ncc2c(n1)N(C1CCCC1)CC(C)C(=O)N2C (racemic) [I-78, (rac)-N-[3-(9-Cyclopentyl-5,7-dimethyl-6-oxo-6,7,8,9-tetrahydro-5H-pyrimido[4,5-b][1,4]diazepin-2-ylamino)-4-methoxy-phenyl]-benzamide]
